This note sets out measurements from US11932658B2 (BRISTOL-MYERS SQUIBB COMPANY, priority 2016, dated 2024).

This assay deals with T1, PAR4 (Homo sapiens, UniProt Q96RI0).
T1 construct: expressed in transfected cells; host or cells: HEK293 PAR4 Clone 1.2A (BMS Arctic ID 383940)
T1 sequence (Q96RI0 18-385): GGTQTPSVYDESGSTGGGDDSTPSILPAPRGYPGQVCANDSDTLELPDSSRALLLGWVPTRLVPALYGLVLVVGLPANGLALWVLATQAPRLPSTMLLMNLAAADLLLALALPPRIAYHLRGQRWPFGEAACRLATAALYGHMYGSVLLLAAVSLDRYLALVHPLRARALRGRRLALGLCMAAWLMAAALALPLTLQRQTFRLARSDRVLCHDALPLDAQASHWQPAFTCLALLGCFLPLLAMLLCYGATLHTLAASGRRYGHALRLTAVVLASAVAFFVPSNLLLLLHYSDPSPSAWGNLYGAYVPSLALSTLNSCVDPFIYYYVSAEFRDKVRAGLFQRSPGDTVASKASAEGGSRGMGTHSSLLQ
As to the kind of experiment: PAR4 FLIPR assay (antagonism of agonist peptide-induced calcium mobilization). In kind it is cell-based. The procedure, abridged:
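Antagonism was taken as block of calcium mobilization evoked by the agonist peptide H-Ala-Phe(4-F)-Pro-Gly-Trp-Leu-Val-Lys-Asn-[…]-NH2, added after 30 min room-temperature compound preincubation in dye-loaded PAR4-transfected HEK293 cells (endogenous PAR1). Fluorescence was read on FDSS, with compound addition alone used as the agonist counter-screen; values come from 11-point concentration-response curves.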
As for `COc1cnc2c(-c3nc4cc(F)c5c(c4s3)C[C@H](COC(=O)Nc3cnc(OCCO)nc3)O5)cc(C)cc2n1` [Example 173, (R)-(5-fluoro-2-(2-methoxy-7-methylquinoxalin-5-yl)-7,8-dihydrobenzofuro[5,4-d]thiazo 1-7-yl)methyl (2-(2-hydroxyethoxy)pyrimidin-5-yl)carbamate], the IC50 – broadly, the point on the concentration scale where inhibition reaches its midpoint – stood at 1.3 nM.

In the case of `COc1cnc2c(-c3nc4cc(F)c5c(c4s3)C[C@@](C)(COC(=O)Nc3cnc(C)nc3)O5)cc(C)cc2n1` [Example 174, (S)-(5-fluoro-2-(2-methoxy-7-methylquinoxalin-5-yl)-7-methyl-7,8-dihydrobenzofuro[5,4-d]thiazol-7-yl)methyl (2-methylpyrimidin-5-yl)carbamate], the IC50 was 30 nM.

Turning to `COc1cnc2c(-c3nc4cc(F)c5c(c4s3)C[C@@](C)(COC(=O)Nc3cccnc3)O5)cc(C)cc2n1` [Example 175, (S)-(5-fluoro-2-(2-methoxy-7-methylquinoxalin-5-yl)-7-methyl-7,8-dihydrobenzofuro[5,4-d]thiazol-7-yl)methyl pyridin-3-ylcarbamate], the IC50 came out at 19 nM.

Regarding `COc1cnc2c(-c3nc4cc(F)c5c(c4s3)C[C@@](C)(COC(=O)Nc3cccc(C#N)c3)O5)cc(C)cc2n1` [Example 176, (S)-(5-fluoro-2-(2-methoxy-7-methylquinoxalin-5-yl)-7-methyl-7,8-dihydrobenzofuro[5,4-d]thiazol-7-yl)methyl (3-cyanophenyl)carbamate], the half-inhibitory concentration (IC50) came out at 6.1 nM.

Turning to `COc1cnc2c(-c3nc4cc(F)c5c(c4s3)C[C@H](COC(=O)Nc3cnc(OC)nc3)O5)cc(C)cc2n1` [Example 177, (R)-(5-fluoro-2-(2-methoxy-7-methylquinoxalin-5-yl)-7,8-dihydrobenzofuro[5,4-d]thiazol-7-yl)methyl (2-methoxypyrimidin-5-yl)carbamate], the IC50 turned out to be 2.8 nM.

Take `COc1cnc2c(-c3nc4cc(F)c5c(c4s3)C[C@H](COC(=O)Nc3ccc4c(c3)C(=O)NC4)O5)cc(C)cc2n1` [Example 178, (R)-(5-fluoro-2-(2-methoxy-7-methylquinoxalin-5-yl)-7,8-dihydrobenzofuro[5,4-d]thiazo 1-7-yl)methyl (3-oxoisoindolin-5-yl)carbamate]: the IC50 came out at 2.3 nM.

In the case of `COc1cnc2c(-c3nc4cc(F)c5c(c4s3)C[C@H](COC(=O)Nc3cc(F)cc(C#N)c3)O5)cc(C)cc2n1` [Example 179, (R)-(5-fluoro-2-(2-methoxy-7-methylquinoxalin-5-yl)-7,8-dihydrobenzofuro[5,4-d]thiazo 1-7-yl)methyl (3-cyano-5-fluorophenyl)carbamate], the IC50 amounted to 2.4 nM.

Consider `COc1cnc2c(-c3nc4cc(F)c5c(c4s3)C[C@H](COC(=O)Nc3cccc(C(N)=O)c3)O5)cc(C)cc2n1` [Example 180, (R)-(5-fluoro-2-(2-methoxy-7-methylquinoxalin-5-yl)-7,8-dihydrobenzofuro[5,4-d]thiazol-7-yl)methyl (3-carbamoylphenyl)carbamate], for which the IC50 came to 1.6 nM.

In the case of `COc1cnc2c(-c3nc4cc(F)c5c(c4s3)C[C@](C)(CO)O5)cc(C)cc2n1` [Example 181, (R)-(5-fluoro-2-(2-methoxy-7-methylquinoxalin-5-yl)-7-methyl-7,8-dihydrobenzofuro[5,4-d]thiazol-7-yl)methanol], the IC50 is 52 nM.

Consider `COc1cnc2c(-c3nc4cc(F)c5c(c4s3)C[C@](C)(COC(=O)Nc3cnc(C)nc3)O5)cc(C)cc2n1` [Example 182, (R)-(5-fluoro-2-(2-methoxy-7-methylquinoxalin-5-yl)-7-methyl-7,8-dihydrobenzofuro[5,4-d]thiazol-7-yl)methyl (2-methylpyrimidin-5-yl)carbamate], for which the IC50 turned out to be 2.6 nM.

With `COc1cnc2c(-c3nc4cc(F)c5c(c4s3)C[C@](C)(COC(=O)Nc3cccnc3)O5)cc(C)cc2n1` [Example 183, (R)-(5-fluoro-2-(2-methoxy-7-methylquinoxalin-5-yl)-7-methyl-7,8-dihydrobenzofuro[5,4-d]thiazol-7-yl)methyl pyridin-3-ylcarbamate], the IC50 is 2.3 nM.

Turning to `COc1cnc2c(-c3nc4cc(F)c5c(c4s3)C[C@](C)(COC(=O)Nc3cccc(C#N)c3)O5)cc(C)cc2n1` [Example 184, (R)-(5-fluoro-2-(2-methoxy-7-methylquinoxalin-5-yl)-7-methyl-7,8-dihydrobenzofuro[5,4-d]thiazol-7-yl)methyl (3-cyanophenyl)carbamate], the IC50 amounted to 1.8 nM.

On to `COc1cnc2c(-c3nc4cc(F)c5c(c4s3)C[C@H](COC(=O)Nc3cncnc3)O5)cc(C)cc2n1` [Example 185], for which the IC50 was found to be 6.9 nM.

For the molecule `COc1cnc2c(-c3nc4ccc5c(c4s3)CC(C)(C)O5)cc(C)cc2n1` [Example 186, 2-(2-methoxy-7-methylquinoxalin-5-yl)-7,7-dimethyl-7,8-dihydrobenzofuro[5,4-d]thiazole], the IC50 amounted to 8.8 nM.

For the molecule `COc1cnc2c(-c3nc4ccc5c(c4s3)C(C)C(CO)O5)cc(C)cc2n1` (stereo not drawn) [Example 189, (2-(2-methoxy-7-methylquinoxalin-5-yl)-8-methyl-7,8-dihydrobenzofuro[5,4-d]thiazol-7-yl)methanol], the IC50 is 11 nM.

As for `COC(=O)NCC1Cc2c(ccc3nc(-c4cc(C)cc5nc(OC)cnc45)sc23)O1` (stereo not drawn) [Example 191, Methyl ((2-(2-methoxy-7-methylquinoxalin-5-yl)-7,8-dihydrobenzofuro[5,4-d]thiazol-7-yl)methy 1)carbamate], the IC50 stood at 7.1 nM.

Consider `COc1cnc2c(-c3nc4ccc5c(c4s3)CC(CNC(=O)Oc3ccccc3)O5)cc(C)cc2n1` (stereo not drawn) [Example 192, Phenyl ((2-(2-methoxy-7-methylquinoxalin-5-yl)-7,8-dihydrobenzofuro[5,4-d]thiazol-7-yl)methy 1)carbamate], for which the IC50 came out at 8.3 nM.

As for `COc1cnc2c(-c3nc4ccc5c(c4s3)CC(CNC(=O)OCc3ccccc3)O5)cc(C)cc2n1` (stereo not drawn) [Example 193, Benzyl ((2-(2-methoxy-7-methylquinoxalin-5-yl)-7,8-dihydrobenzofuro[5,4-d]thiazol-7-yl)methyl)carbamate], the IC50 stood at 5.3 nM.

As to `COc1cnc2c(-c3nc4ccc5c(c4s3)C[C@](C)(COC(=O)Nc3cnc(C)nc3)O5)cc(C)cc2n1` [Example 194, (R)-(2-(2-methoxy-7-methylquinoxalin-5-yl)-7-methyl-7,8-dihydrobenzofuro[5,4-d]thiazol-7-yl)methyl (2-methylpyrimidin-5-yl)carbamate], the IC50 stood at 2.5 nM.

For the molecule `COc1cnc2c(-c3nc4ccc5c(c4s3)C[C@](C)(COC(=O)Nc3cccnc3)O5)cc(C)cc2n1` [Example 195, (R)-(2-(2-methoxy-7-methylquinoxalin-5-yl)-7-methyl-7,8-dihydrobenzofuro[5,4-d]thiazol-7-yl)methyl pyridin-3-ylcarbamate], the IC50 came out at 3.5 nM.

Consider `COc1cnc2c(-c3nc4ccc5c(c4s3)C[C@](C)(COC(=O)Nc3cccc(C#N)c3)O5)cc(C)cc2n1` [Example 196, (R)-(2-(2-methoxy-7-methylquinoxalin-5-yl)-7-methyl-7,8-dihydrobenzofuro[5,4-d]thiazol-7-yl)methyl (3-cyanophenyl)carbamate], for which the IC50 came to 1.6 nM.

`CCOC(=O)NCC1Cc2c(ccc3nc(-c4cc(C)cc5nc(OC)cnc45)sc23)O1` (stereo not drawn) [Example 197, Ethyl ((2-(2-methoxy-7-methylquinoxalin-5-yl)-7,8-dihydrobenzofuro[5,4-d]thiazol-7-yl)methyl)carbamate]: the IC50 came to 22 nM.

Consider `COc1cnc2c(-c3nc4ccc5c(c4s3)CC(CNC(=O)OCC(C)C)O5)cc(C)cc2n1` (stereo not drawn) [Example 198, Isobutyl ((2-(2-methoxy-7-methylquinoxalin-5-yl)-7,8-dihydrobenzofuro[5,4-d]thiazol-7-yl)methy 1)carbamate], for which the IC50 amounted to 3.1 nM.

Regarding `COc1cnc2c(-c3nc4cc(F)c5c(c4s3)CC(C)(C)O5)cc(C)cc2n1` [Example 200, 5-fluoro-2-(2-methoxy-7-methylquinoxalin-5-yl)-7,7-dimethyl-7,8-dihydrobenzofuro[5,4-d]thiazole], the IC50 was 7.9 nM.

Take `COc1cnc2c(-c3nc4cc(F)c5c(c4s3)C[C@@H](CNC(=O)OC(C)(C)C)O5)cc(C)cc2n1` [Example 202, (S)-tert-butyl ((5-fluoro-2-(2-methoxy-7-methylquinoxalin-5-yl)-7,8-dihydrobenzofuro[5,4-d]thiazol-7-yl)methyl)carbamate]: the IC50 is 6.5 nM.

`COc1cnc2c(-c3nc4cc(F)c5c(c4s3)C[C@H](COC(=O)Nc3cccc(C(=O)N(C)C)c3)O5)cc(C)cc2n1` [Example 203, (R)-(5-fluoro-2-(2-methoxy-7-methylquinoxalin-5-yl)-7,8-dihydrobenzofuro[5,4-d]thiazo 1-7-yl)methyl (3-(dimethylcarbamoyl)phenyl)carbamate]: the IC50 amounted to 2.3 nM.

As to `COc1cnc2c(-c3nc4cc(F)c5c(c4s3)C[C@H](COC(=O)Nc3ccc(C(=O)N(C)C)cc3)O5)cc(C)cc2n1` [Example 204, (R)-(5-fluoro-2-(2-methoxy-7-methylquinoxalin-5-yl)-7,8-dihydrobenzofuro[5,4-d]thiazo 1-7-yl)methyl (4-(dimethylcarbamoyl)phenyl)carbamate], the IC50 came out at 2.3 nM.
